Values quoted from earlier work as cited in paper PMC10817174, “Integrated drug response prediction models pinpoint repurposed drugs with effectiveness against rhabdomyosarcoma” (PLOS ONE, 2024).

Tests used:
[1] = system: GDSC-SJCRH30 cell line; settings: Table S2, published drug response ref Iorio et al. (2016); cited from earlier work
[2] = system: GDSC-RD cell line; settings: Table S2, published drug response ref Iorio et al. (2016); cited from earlier work

CC1=C(C(=O)Nc2cc3cn[nH]c3cc2F)C(c2ccc(C(F)(F)F)cc2)CC(=O)N1 (centres unmarked) [GSK429286A]
Iorio_SJCRH30 [1]: R | Iorio_RD [2]: R

c1ccc2c(CCNc3ccc(Nc4ccncc4)cc3)c[nH]c2c1 [JNJ-26854165]
Iorio_SJCRH30 [1]: R | Iorio_RD [2]: R

N#CC[C@H](C1CCCC1)n1cc(-c2ncnc3[nH]ccc23)cn1 [Ruxolitinib]
Iorio_SJCRH30 [1]: R | Iorio_RD [2]: R

Cc1ccc2nc(NCCN)c3ncc(C)n3c2c1 [BMS-345541]
Iorio_SJCRH30 [1]: R | Iorio_RD [2]: R

CC/C(=C(\c1ccccc1)c1ccc(OCCN(C)C)cc1)c1ccccc1 [Tamoxifen]
Iorio_SJCRH30 [1]: R | Iorio_RD [2]: R

Cc1ccc(F)c(NC(=O)Nc2ccc(-c3cccc4[nH]nc(N)c34)cc2)c1 [ABT-869]
Iorio_SJCRH30 [1]: R | Iorio_RD [2]: R

COc1ccc(COc2ccc(Cc3cnc(N)nc3N)cc2OC)cc1 [GW-2580]
Iorio_SJCRH30 [1]: R | Iorio_RD [2]: R

COc1cc2c(Oc3ccc(NC(=O)C4(C(=O)Nc5ccc(F)cc5)CC4)cc3F)ccnc2cc1OCCCN1CCOCC1 [XL-880]
Iorio_SJCRH30 [1]: R | Iorio_RD [2]: R

Cn1nnc2c(C(N)=O)ncn2c1=O [Temozolomide]
Iorio_SJCRH30 [1]: R | Iorio_RD [2]: R

COC(=O)[C@H](CCSC)NC(=O)c1ccc(NC[C@@H](N)CS)cc1-c1ccccc1 [FTI-277]
Iorio_SJCRH30 [1]: R | Iorio_RD [2]: R

Cn1ncnc1[C@H]1c2n[nH]c(=O)c3cc(F)cc(c23)N[C@@H]1c1ccc(F)cc1 [BMN-673]
Iorio_SJCRH30 [1]: S | Iorio_RD [2]: R

CCN1CCN(Cc2ccc(NC(=O)c3ccc(C)c(Oc4ccnc5[nH]ccc45)c3)cc2C(F)(F)F)CC1 [NG-25]
Iorio_SJCRH30 [1]: R | Iorio_RD [2]: R

COc1cc([C@@H]2c3cc4c(cc3[C@@H](O[C@@H]3O[C@@H]5CO[C@@H](C)O[C@H]5[C@H](O)[C@H]3O)[C@H]3COC(=O)[C@H]23)OCO4)cc(OC)c1O [Etoposide]
Iorio_SJCRH30 [1]: R | Iorio_RD [2]: R

COCC(=O)NC/C=C/c1ccc2ncnc(Nc3ccc(Oc4ccc(C)nc4)c(C)c3)c2c1 [CP724714]
Iorio_SJCRH30 [1]: R | Iorio_RD [2]: R

O=C(O)c1ccc(-c2c[nH]c3ncc(-c4ccccc4)cc23)cc1C1CCCC1 [GSK-650394]
Iorio_SJCRH30 [1]: R | Iorio_RD [2]: R

C=CCc1cccc(/C=N/NC(=O)CN2CCN(Cc3ccccc3)CC2)c1O [PAC-1]
Iorio_SJCRH30 [1]: R | Iorio_RD [2]: R

COc1cc(N2CCN(C)CC2)ccc1Nc1nc(N)c(C(=O)c2c(Cl)cccc2Cl)s1 [XMD14-99]
Iorio_SJCRH30 [1]: R | Iorio_RD [2]: R

[H]/N=C(/N)N/C(=N/[H])NCCc1ccccc1 [Phenformin]
Iorio_SJCRH30 [1]: R | Iorio_RD [2]: R

O=C(c1ccc(C(=O)N2CCC(N3CCCC3)CC2)c(Nc2ccccc2)c1)N1CCC(N2CCCC2)CC1 [UNC1215]
Iorio_SJCRH30 [1]: S | Iorio_RD [2]: R

COc1ncc(-c2ccc3nccc(-c4ccnnc4)c3c2)cc1NS(=O)(=O)c1ccc(F)cc1F [GSK2126458]
Iorio_SJCRH30 [1]: R | Iorio_RD [2]: R

Cc1ccc(C(=O)Nc2cccc(C(F)(F)F)c2)cc1Nc1nc(-c2cccnc2)nc2c1cnn2C [NVP-BHG712]
Iorio_SJCRH30 [1]: R | Iorio_RD [2]: R

Cc1cnc(CNC(=O)c2c(=O)c3ccc(N4CCCN(C)CC4)nc3n3c2sc2ccccc23)cn1 [CX-5461]
Iorio_SJCRH30 [1]: R | Iorio_RD [2]: S

O=c1[nH]cc(F)c(=O)[nH]1 [5-Fluorouracil]
Iorio_SJCRH30 [1]: R | Iorio_RD [2]: R

C[C@@H](N)c1ccc(C(=O)Nc2ccnc3[nH]ccc23)cc1 [Y-39983]
Iorio_SJCRH30 [1]: R | Iorio_RD [2]: R

COc1nc(C)cnc1NS(=O)(=O)c1cccnc1-c1ccc(-c2nnco2)cc1 [Zibotentan]
Iorio_SJCRH30 [1]: R | Iorio_RD [2]: R

O=C(/C=C/c1ccc(CN(CCO)CCc2c[nH]c3ccccc23)cc1)NO [LAQ824]
Iorio_SJCRH30 [1]: R | Iorio_RD [2]: R

Oc1cccc(-c2nc(N3CCOCC3)c3oc4ncccc4c3n2)c1 [PI-103]
Iorio_SJCRH30 [1]: R | Iorio_RD [2]: R

COc1cccc2c1C(=O)c1c(O)c3c(c(O)c1C2=O)C[C@@](O)(C(=O)CO)C[C@@H]3O[C@H]1C[C@H](N)[C@H](O)[C@H](C)O1 [Doxorubicin]
Iorio_SJCRH30 [1]: R | Iorio_RD [2]: R

Oc1nc(-c2ccc(C(F)(F)F)cc2)nc2c1CSCC2 [XAV-939]
Iorio_SJCRH30 [1]: R | Iorio_RD [2]: R

O=c1[nH]c2ccccc2n1C1CCN(Cc2ccc(-c3nc4cc5[nH]cnc5cc4nc3-c3ccccc3)cc2)CC1 [AKT-inhibitor-VIII]
Iorio_SJCRH30 [1]: R | Iorio_RD [2]: R

C/C(=C\c1csc(C)n1)[C@@H]1C[C@@H]2O[C@]2(C)CCC[C@H](C)[C@H](O)[C@@H](C)C(=O)C(C)(C)[C@@H](O)CC(=O)O1 [Epothilone-B]
Iorio_SJCRH30 [1]: R | Iorio_RD [2]: R

CC(C)(C)c1nc(-c2cccc(NS(=O)(=O)c3c(F)cccc3F)c2F)c(-c2ccnc(N)n2)s1 [Dabrafenib]
Iorio_SJCRH30 [1]: R | Iorio_RD [2]: R

O=c1cc(CN2CCOCC2)occ1OCCCCCSc1ccnc2cc(C(F)(F)F)ccc12 [EHT-1864]
Iorio_SJCRH30 [1]: R | Iorio_RD [2]: R

NS(=O)(=O)OC[C@@H]1C[C@@H](n2ccc3c(N[C@H]4CCc5ccccc54)ncnc32)C[C@@H]1O [MLN4924]
Iorio_SJCRH30 [1]: R | Iorio_RD [2]: R

O=C(NC1CCNCC1)c1[nH]ncc1NC(=O)c1c(Cl)cccc1Cl [AT-7519]
Iorio_SJCRH30 [1]: R | Iorio_RD [2]: R

CC(=O)Nc1cccc(-n2c(=O)n(C3CC3)c(=O)c3c(Nc4ccc(I)cc4F)n(C)c(=O)c(C)c32)c1 [Trametinib]
Iorio_SJCRH30 [1]: R | Iorio_RD [2]: S

C/C=C(/C)C(=O)O[C@H]1C(C)=C2[C@H]([C@@H]1OC(=O)CCCCCCC)[C@@](C)(OC(C)=O)C[C@H](OC(=O)CCC)[C@@]1(O)[C@H]2OC(=O)[C@@]1(C)O [Thapsigargin]
Iorio_SJCRH30 [1]: R | Iorio_RD [2]: R

O=S(=O)(O)c1ccc2cc(N=Nc3cc(S(=O)(=O)O)c4cccnc4c3O)ccc2c1 [NSC-87877]
Iorio_SJCRH30 [1]: R | Iorio_RD [2]: R

CC1(C)CC(=O)c2c(C(F)(F)F)nn(-c3ccc(C(N)=O)c(N[C@H]4CC[C@H](O)CC4)c3)c2C1 [SNX-2112]
Iorio_SJCRH30 [1]: R | Iorio_RD [2]: R

COc1cc2nccc(Oc3ccc(NC(=O)Nc4cc(C)on4)c(Cl)c3)c2cc1OC [AV-951, tivozanib]
Iorio_SJCRH30 [1]: R | Iorio_RD [2]: R

Cc1cc([N+](=O)[O-])ccc1NS(=O)(=O)c1cc(Cl)ccc1Cl [FH535]
Iorio_SJCRH30 [1]: R | Iorio_RD [2]: R

COc1ccc(-c2cc3nccn3c(Nc3ncccc3C(N)=O)n2)cc1OC [BAY-61-3606]
Iorio_SJCRH30 [1]: R | Iorio_RD [2]: R

CC(=O)Nc1nc(C)c(-c2ccc(Cl)c(S(=O)(=O)NCCO)c2)s1 [PIK-93]
Iorio_SJCRH30 [1]: R | Iorio_RD [2]: R

Cc1ccc(NC(=O)c2ccc(CN3CCN(C)CC3)cc2)cc1Nc1nc(-c2cccnc2)cs1 [Masitinib]
Iorio_SJCRH30 [1]: R | Iorio_RD [2]: R

FC(F)c1nc2ccccc2n1-c1nc(N2CCOCC2)nc(N2CCOCC2)n1 [ZSTK474]
Iorio_SJCRH30 [1]: R | Iorio_RD [2]: R

NCC(=O)Nc1ccc(-n2nc(C(F)(F)F)cc2-c2ccc3c(ccc4ccccc43)c2)cc1 [OSU-03012]
Iorio_SJCRH30 [1]: R | Iorio_RD [2]: R

CCc1c2c(nc3ccc(O)cc13)-c1cc3c(c(=O)n1C2)COC(=O)[C@]3(O)CC [SN-38]
Iorio_SJCRH30 [1]: R | Iorio_RD [2]: R

CN(c1ncccc1CNc1nc(Nc2ccc3c(c2)CC(=O)N3)ncc1C(F)(F)F)S(C)(=O)=O [PF-562271]
Iorio_SJCRH30 [1]: R | Iorio_RD [2]: R

Nc1ccc(C(=O)Nc2cccc(-c3nc(N4CCOCC4)c4oc5ncccc5c4n3)c2)cn1 [YM201636]
Iorio_SJCRH30 [1]: R | Iorio_RD [2]: R

CCN1CCC(n2cc(CNc3cc(Cl)c4ncc(C#N)c(Nc5ccc(F)c(Cl)c5)c4c3)nn2)CC1 [KIN001-266]
Iorio_SJCRH30 [1]: R | Iorio_RD [2]: R

O=C1NC(=O)/C(=C\c2ccc3nccnc3c2)S1 [AS605240]
Iorio_SJCRH30 [1]: R | Iorio_RD [2]: R

O=C(O)CNC(=O)c1c(O)c2ccccc2n(Cc2ccccc2)c1=O [IOX2]
Iorio_SJCRH30 [1]: R | Iorio_RD [2]: R

COC1=CC(c2cc3ccccc3[nH]2)=N/C1=C\c1[nH]c(C)cc1C [Obatoclax-Mesylate]
Iorio_SJCRH30 [1]: R | Iorio_RD [2]: R

OC[C@H](Cc1ccccc1)Nc1nc(Oc2ccc3c(c2)CCC3)nc2c1ncn2Cc1ccc(-c2ccccc2)cc1 [QS11]
Iorio_SJCRH30 [1]: R | Iorio_RD [2]: R

CC(C)(C)OC(=O)Nc1ccc(-c2cc(C(=O)NCCCCCCC(=O)NO)no2)cc1 [CAY10603]
Iorio_SJCRH30 [1]: R | Iorio_RD [2]: R

COc1cc(OC)cc(-c2ccc3ncc4ccc(=O)n(-c5ccc(N6CCNCC6)c(C(F)(F)F)c5)c4c3c2)c1 [JW-7-24-1]
Iorio_SJCRH30 [1]: R | Iorio_RD [2]: R

Cc1ccc(-c2c(C(=O)CF)n(CCCO)c3ncnc(N)c23)cc1 [FMK]
Iorio_SJCRH30 [1]: R | Iorio_RD [2]: R

COCCn1c2c([n+](Cc3cnccn3)c1C)C(=O)c1ccccc1C2=O [YM155]
Iorio_SJCRH30 [1]: R | Iorio_RD [2]: R

Oc1ccc2ccccc2c1SSc1c(O)ccc2ccccc12 [IPA-3]
Iorio_SJCRH30 [1]: R | Iorio_RD [2]: R

O=S(=O)(c1ccccc1)N(CC(F)(F)F)c1ccc(C(O)(C(F)(F)F)C(F)(F)F)cc1 [T0901317]
Iorio_SJCRH30 [1]: R | Iorio_RD [2]: R

Cc1cccc(-c2[nH]c(C(C)(C)C)nc2-c2ccc3c(c2)OCO3)n1 [SB-505124]
Iorio_SJCRH30 [1]: R | Iorio_RD [2]: R

Cc1ccc(C(=O)Nc2ccc(CN3CCN(C)CC3)c(C(F)(F)F)c2)cc1C#Cc1cnc2cccnn12 [AP-24534]
Iorio_SJCRH30 [1]: R | Iorio_RD [2]: R

CN(C)C/C=C/C(=O)Nc1ccc(C(=O)Nc2cccc(Nc3ncc(Cl)c(-c4c[nH]c5ccccc45)n3)c2)cc1 [THZ-2-102-1]
Iorio_SJCRH30 [1]: R | Iorio_RD [2]: R

CNCc1ccc(-c2[nH]c3cc(F)cc4c3c2CCNC4=O)cc1 [AG-014699]
Iorio_SJCRH30 [1]: R | Iorio_RD [2]: R
